Test results as given in ChEMBL document CHEMBL5344475, “Indole-containing pharmaceuticals: targets, pharmacological activities, and SAR studies” (RSC Med Chem, 2024).

Assays:
[1] = Plasma protein binding in human assessed as unbound fraction; assay type: ADME, cell-free
[2] = Inhibition of tyrosine kinase (unknown origin); design: species or system Homo sapiens
[3] = Half life in human plasma; assay type: ADME, cell-free
[4] = Volume of distribution at steady state in iv dosed human; conditions: in vivo, read-out: Vdss
[5] = target: T1, DNA polymerase alpha catalytic subunit (Homo sapiens, UniProt P09884); experiment: Inhibition of DNA polymerase alpha (unknown origin)
T1 sequence (P09884 whole entry): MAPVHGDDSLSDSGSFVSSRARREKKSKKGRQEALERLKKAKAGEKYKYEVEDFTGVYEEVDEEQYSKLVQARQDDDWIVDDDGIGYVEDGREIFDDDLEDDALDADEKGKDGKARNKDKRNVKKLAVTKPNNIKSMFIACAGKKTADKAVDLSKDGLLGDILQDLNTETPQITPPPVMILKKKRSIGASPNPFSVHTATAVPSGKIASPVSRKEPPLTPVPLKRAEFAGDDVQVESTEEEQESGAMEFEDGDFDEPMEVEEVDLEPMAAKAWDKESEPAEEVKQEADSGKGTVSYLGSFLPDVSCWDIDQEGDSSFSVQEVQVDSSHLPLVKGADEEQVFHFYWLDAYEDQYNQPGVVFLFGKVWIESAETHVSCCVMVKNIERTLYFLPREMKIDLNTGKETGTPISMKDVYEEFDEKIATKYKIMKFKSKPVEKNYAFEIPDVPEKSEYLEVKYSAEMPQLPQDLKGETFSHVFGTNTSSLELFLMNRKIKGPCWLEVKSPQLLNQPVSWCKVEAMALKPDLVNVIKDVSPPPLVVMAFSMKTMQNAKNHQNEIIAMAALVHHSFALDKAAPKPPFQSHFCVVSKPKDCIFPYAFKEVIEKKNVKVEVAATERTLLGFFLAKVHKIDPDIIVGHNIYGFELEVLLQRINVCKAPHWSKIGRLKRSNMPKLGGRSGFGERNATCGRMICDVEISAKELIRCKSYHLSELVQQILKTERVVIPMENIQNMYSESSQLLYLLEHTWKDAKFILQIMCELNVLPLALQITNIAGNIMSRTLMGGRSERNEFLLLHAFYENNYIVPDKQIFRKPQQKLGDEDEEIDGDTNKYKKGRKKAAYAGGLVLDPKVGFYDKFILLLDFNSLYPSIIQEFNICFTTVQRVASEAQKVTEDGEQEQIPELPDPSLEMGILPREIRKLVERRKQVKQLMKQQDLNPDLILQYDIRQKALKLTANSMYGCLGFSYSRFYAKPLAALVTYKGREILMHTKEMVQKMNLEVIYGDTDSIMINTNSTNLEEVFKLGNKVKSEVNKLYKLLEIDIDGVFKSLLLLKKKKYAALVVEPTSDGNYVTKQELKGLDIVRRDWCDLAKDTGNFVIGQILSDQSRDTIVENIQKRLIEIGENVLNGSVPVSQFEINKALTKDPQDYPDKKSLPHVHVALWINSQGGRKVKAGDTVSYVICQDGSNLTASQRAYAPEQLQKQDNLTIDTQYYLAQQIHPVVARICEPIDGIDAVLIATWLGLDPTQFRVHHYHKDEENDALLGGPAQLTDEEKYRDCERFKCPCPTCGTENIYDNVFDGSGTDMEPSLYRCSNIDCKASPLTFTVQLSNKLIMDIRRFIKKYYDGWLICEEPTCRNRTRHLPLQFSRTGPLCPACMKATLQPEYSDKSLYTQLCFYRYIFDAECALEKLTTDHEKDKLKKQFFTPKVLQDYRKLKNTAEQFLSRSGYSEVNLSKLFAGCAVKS

SMILES	Fu [1] [%]	IC50 [2] [nM]	half-life [3] [h]	Vd [4] [L]	IC50 [5] [nM]
C=CC(=O)Nc1cc(Nc2nccc(-c3cn(C)c4ccccc34)n2)c(OC)cc1N(C)CCN(C)C [OSIMERTINIB]	5	27.6	48	918	
CNCc1ccc(-c2[nH]c3cc(F)cc4c3c2CCNC4=O)cc1 [RUCAPARIB]			17		0.4
